Measured values: patent publication US7238493B2, “Acetylation of pRb by p300 assay method for compounds which modulate this process” (The University Court of the University of Glasgow, priority 2000, dated 2007)
Entries after “also recorded” stand apart in the source; their conditions may differ.

Test system: pRb/MDM2 complex
Assay: pRb immunoprecipitation and anti-MDM2 immunoblot from TSA-treated T98G cells
Assay type: cell-based
Details: TSA 5 μM for 18-20 h, FIG. 4g
Protocol: Conversely, conditions that enhance acetylation would be expected to promote the interaction of pRb with MDM2. To this end, we treated T98G cells with trichostatin A (TSA), which blocks histone deacetylase (HDAC) activity 18 and thereafter assessed the interaction between pRb and MDM2.
For immunoprecipitation of endogenous acetylated pRb, cell pellets collected from SAOS2, U2OS, T98G, A31, and HEK293 cells were lysed in IPH buffer (50 mM Tris pH 8.0, 150 mM NaCl, 0.5% NP-40, protease inhibitor cocktail (Roche), 5mM EDTA, 5 μM TSA (Sigma)). The protein concentration of the extracts was determined by Bradford assay (BioRad). Protein-A-agarose was first incubated with anti-Rb antibody IF8 and C15 for 1-2 h at 4 C. […] Proteins bound to the beads were elute with 3×SDS loading buffer and analysed by Western blotting using appropriated antibodies. […]
Domains in E1A for p300-Dependent Acetylation of pRb and Acetylated pRb Binds to MDM2. • a) In vitro acetylation assay in which Flag-tagged p3001135-2414 (0.3 μg) together with GST-pRb (2 μg) was incubated with either wild-type GST-E1A, GST-Δ36 or GST-pm928 (1 μg) as indicated. The effect of the buffer (track 5) or GST (1 μg; track 1) alone was also assessed. The quantification of the level of p300 autoacetylation (b) and pRb acetylation (c) in the presence of the E1A derivatives is shown. […]

With `CC(/C=C/C(=O)NO)=C\[C@@H](C)C(=O)c1ccc(N(C)C)cc1` [TSA, trichostatin A] the “interaction between pRb and MDM2 (pRb/MDM2 complex in pRb immunoprecipitate)” value was “presence of MDM2 in the pRb immunocomplex; also recorded: clearly detectable; also recorded: augments the interaction between pRb and MDM2”.
